From the supplement of paper PMC4977894
Counter-ions that a name gives are not always drawn. ± gives the standard deviation of the averaged measurements.

Assays:
[1] = tested on: Homo sapiens (human subject panel, olfactory perception); test: perceived odor familiarity rating (rating 0-100); higher = more familiar
Experimental: (§1)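 Human olfactory psychophysics. 55 healthy subjects (after excluding 6 low performers) sniffed 1 mL of each odorant diluted in paraffin oil (vials, two dilutions per molecule, 20 molecules presented twice). Each subject rated intensity, pleasantness and familiarity on a 0-100 slider, starting at 50 and required to move. Ratings were given only when the subject reported detecting a smell; per-subject ratings are averaged over subjects.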

[2] = tested on: Homo sapiens (human subject panel, olfactory perception); test: perceived odor pleasantness rating (rating 0-100); higher = more pleasant
Experimental: as §1

[3] = tested on: Homo sapiens (human subject panel, olfactory perception); test: perceived odor intensity rating (rating 0-100); higher = stronger perceived smell
Experimental: as §1

[4] = odor dilution in paraffin oil: 1/1,000
[5] = odor dilution in paraffin oil: 1/100,000
[6] = odor dilution in paraffin oil: 1/10,000,000
[7] = odor dilution in paraffin oil: 1/10

SMILES	perceived odor familiarity rating [1, 4]	perceived odor familiarity rating [1, 5]	perceived odor pleasantness rating [2, 4]	perceived odor pleasantness rating [2, 5]	perceived odor intensity rating [3, 4]	perceived odor intensity rating [3, 5]	perceived odor familiarity rating [1, 6]	perceived odor pleasantness rating [2, 6]	perceived odor intensity rating [3, 6]	perceived odor familiarity rating [1, 7]	perceived odor pleasantness rating [2, 7]	perceived odor intensity rating [3, 7]
CCc1nccnc1C(C)=O [2-Acetyl-3-ethylpyrazine]	57.2 ± 29	52.4 ± 30	25.7 ± 23	41.2 ± 23	79.4 ± 20	46.3 ± 30	–	–	–	–	–	–
CC(=O)c1ccc(C)o1 [2-Acetyl-5-methylfuran]	38.2 ± 28	38.2 ± 29	36.5 ± 25	47.4 ± 27	71.5 ± 22	25.2 ± 31	–	–	–	–	–	–
CC(=O)c1nccs1 [2-Acetylthiazole]	69.3 ± 28	58.3 ± 31	46.3 ± 31	47.7 ± 30	80 ± 20	76.3 ± 17	–	–	–	–	–	–
CC(=O)c1cccs1 [2-Acetylthiophene]	–	42.4 ± 30	–	46 ± 23	–	43.9 ± 29	44.9 ± 30	52.4 ± 25	25.3 ± 28	–	–	–
CC(=O)c1ccccc1N [2-Aminoacetophenone]	54.8 ± 30	52.7 ± 30	57.5 ± 27	58.4 ± 26	71.9 ± 24	66.7 ± 27	–	–	–	–	–	–
CCOc1nccs1 [2-Ethoxythiazole]	45.2 ± 30	42.5 ± 28	24.3 ± 23	37.6 ± 25	79.9 ± 19	52.7 ± 30	–	–	–	–	–	–
CCc1nccnc1C [2-Ethyl-3-methylpyrazine]	55.7 ± 32	60 ± 31	31.2 ± 26	43.9 ± 29	82.1 ± 17	70.5 ± 21	–	–	–	–	–	–
CCc1nc(C)cs1 [2-Ethyl-4-methylthiazole]	43.6 ± 30	45.6 ± 29	16.6 ± 19	33.6 ± 24	87 ± 15	73.1 ± 21	–	–	–	–	–	–
CCC1(O)C2(C)CCC(C2)C1(C)C (configuration not stated) [2-Ethylfenchol]	58.9 ± 33	47.7 ± 35	37.2 ± 27	45.5 ± 25	73.6 ± 27	39.1 ± 34	–	–	–	–	–	–
CCc1ccco1 [2-Ethylfuran]	45.4 ± 31	31.4 ± 29	34.4 ± 24	38.3 ± 30	52.4 ± 31	42.2 ± 35	–	–	–	–	–	–
CCCCC(CC)C(=O)O (configuration not stated) [2-Ethylhexanoic acid]	47.7 ± 28	–	38.1 ± 22	–	47.8 ± 31	–	–	–	–	46.6 ± 29	28.4 ± 21	73.7 ± 23
O=CSCc1ccco1 [2-Furanmethanethiol formate]	–	54.5 ± 36	–	21.5 ± 23	–	87.3 ± 14	58.5 ± 35	24.3 ± 28	86.9 ± 14	–	–	–
CC(=O)c1ccccc1O [2-Hydroxyacetophenone]	49.6 ± 33	43.8 ± 29	29.5 ± 25	39.2 ± 24	80.7 ± 17	48.5 ± 30	–	–	–	–	–	–
CC(C)Cc1nccs1 [2-Isobutylthiazole]	–	46.3 ± 29	–	41.4 ± 26	–	61.3 ± 26	32.4 ± 31	46.4 ± 23	31.2 ± 31	–	–	–
CC(C)c1ccccc1O [2-Isopropylphenol]	49 ± 34	36 ± 29	28.8 ± 22	44.4 ± 20	84.3 ± 14	38.8 ± 30	–	–	–	–	–	–
CC(O)C(C)S (configuration not stated) [2-Mercapto-3-butanol]	–	41.6 ± 32	–	40 ± 26	–	45.9 ± 32	37 ± 26	50.2 ± 23	30.2 ± 30	–	–	–
COc1cncc(C(C)C)n1 [2-Methoxy-3(5 or 6)-isopropylpyrazine]	50 ± 32	45.3 ± 28	27.3 ± 26	33.3 ± 22	80.8 ± 23	58 ± 30	–	–	–	–	–	–
